One series has as its system 5-LOX. The arrangement: method as in PMID 8021931, PMID 9396390, PMID 12660020, PMID 19719242. As to conditions: literature values, Figures 1 and 2; cited from earlier work.
Another series deals with COX-1. Particulars: cited from earlier work; for IC50: literature values, Figures 1 and 2.
For the next series, the system named is COX-2. The arrangement: method as in PMID 10027870, PMID 8021931, PMID 12660020. Particulars: literature values, Figures 1 and 2; cited from earlier work.
For a further series, the system named is rat stomach mucosa. Briefly: Acute ulcerogenicity study. It counts as in vivo. Particulars: oral, 0.48 mmol/kg; for Ulcerogenicity UI (ulcer index): three days, n = 6. The method, then: GIT toxicity is the main serious side effect of the NSAIDs. In this work, the ulcerogenicity of the novel compounds 12–19 was evaluated according to the previous reported methodology. The tested compounds 12–19 and ibuprofen were given orally in a dose of 0.48 mmol/kg.
(§1) Adult albino rats of both sex weighing 100–140 g were used in evaluation of the anti-inflammatory, analgesic, ulcerogenic activity in addition to the histopathological study of the new pyrrolizines 12–19. Animal ethical use clearance was obtained from the Ethical Committee at the College of Pharmacy, Umm Al-Qura University. Normalization of the animals with laboratory conditions were achieved by keeping them in laboratory one week before starting the experiments. Standard rat pellet diet was used for feeding animals and water ad libitum.
GIT toxicity was evaluated according to the previous report. Adult albino rats of both sexes were divided into groups of six animals each. The test compounds were dissolved first in 0.5 mL DMSO, then CMC (1%) was added dropwise with trituration. Rats were fasted 20 h before drug administration. The eight tested compounds and ibuprofen were given orally in a dose of 0.24 and 0.48 mmol/kg/day suspended in 1% CMC, while the control group received vehicle (1% CMC containing few drops of DMSO). Rats were then fasted for 2 h, allowed to feed for 2 h then fasted again for another 20 h. Other doses were given in the second and third days. In the fourth day, Pentobarbital (60 mg/kg IP) was used to induce deep anesthesia then rats were sacrificed. The stomachs were removed, opened along with the greater curvature and rinsed with 0.9% saline. The number of mucosal damages (red spots) were counted using magnifying lens and their severity (ulcerogenic severity) was graded in a scale from 0 to 3 as follows: (0) normal (no injury), (0.5) red coloration, (1) spot ulcer, (1.5) hemorrhagic streaks, (2) ulcer > 3 mm, (3) ulcer > 5 mm. The ulcer index was calculated using the following equation ulcer index (UI) = UN + US + UP/10, where UN is the average number pf ulcers per animal, US is the average of severity score, UP is the percent of animal with ulcer.

A further series has as its system thermal pain (hot plate). Briefly: Hot-plate test (analgesic activity). It counts as in vivo, rat. As to conditions: IP; for analgesic activity (in words): 0.24 and 0.48 mmol/kg, 2 h after injection, compared with ibuprofen; for analgesic potency relative to ibuprofen: 0.48 mmol/kg. In general terms: Thermal pain tests record how soon the animal reacts.
The next series has as its target T1, COX-1 (ovine) (Ovis aries, UniProt P05979).
T1 sequence (P05979 25-600): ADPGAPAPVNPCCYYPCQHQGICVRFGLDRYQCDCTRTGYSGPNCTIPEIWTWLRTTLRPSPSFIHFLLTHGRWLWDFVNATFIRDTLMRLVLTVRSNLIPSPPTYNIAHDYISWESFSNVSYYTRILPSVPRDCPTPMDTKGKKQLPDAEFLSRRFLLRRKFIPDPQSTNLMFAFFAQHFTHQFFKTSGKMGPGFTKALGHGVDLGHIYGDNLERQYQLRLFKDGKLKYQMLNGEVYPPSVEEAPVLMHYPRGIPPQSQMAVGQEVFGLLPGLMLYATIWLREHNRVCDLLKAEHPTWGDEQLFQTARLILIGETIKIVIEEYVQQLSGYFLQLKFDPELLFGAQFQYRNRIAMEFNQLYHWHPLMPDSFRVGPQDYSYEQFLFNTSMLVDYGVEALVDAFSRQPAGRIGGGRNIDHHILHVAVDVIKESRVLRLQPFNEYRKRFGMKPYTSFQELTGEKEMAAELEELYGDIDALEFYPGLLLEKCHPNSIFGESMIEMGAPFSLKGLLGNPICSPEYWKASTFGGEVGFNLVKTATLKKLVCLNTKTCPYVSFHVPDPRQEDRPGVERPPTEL
Briefly: COX colorimetric inhibitor screening assay, COX-1.

The subject of series [1] is stomach mucosa, submucosa and mucosal glands. Briefly: Histopathological study of rat stomach. It counts as in vivo. Particulars: rats of the ulcerogenicity test, haematoxylin and eosin stain.
Excerpt: The stomachs of the rats used in ulcerogenicity test were subjected to a histopathological study to visualize the deep effects of ibuprofen and tested compounds on the stomach mucosa, submucosa and mucosal glands. The specimens were stained with haematoxylin and eosin stain [33].
The study investigated the deep effect of the tested compounds on the mucosa, submucosa and mucosal gland. The stomachs which were opened longitudinally along the greater curvature were used and the specimens were taken from the stomachs of all cases. These specimens were fixed in 10% formalin solution for 72 h. The samples were processed and embedded in paraffin wax. Microtomy was done and 5 microns tissue sections were obtained and mounted on clean glass slides.
Series [2] relates to carrageenan-induced rat paw edema. In words: Carrageenan-induced rat paw edema model (anti-inflammatory activity). It counts as in vivo. More on the design: key to Potency (anti-inflammatory activity of tested compound/ibuprofen): ratio of % inhibition of edema (compound / ibuprofen); ibuprofen = 1.00. As to conditions: for % Inhibition in Edema Thickness 1 h: 1 h after induction of inflammation; for % Inhibition in Edema Thickness 1 h / % Inhibition in Edema Thickness 2 h / % Inhibition in Edema Thickness 3 h: IP, dose molecularly equivalent to ibuprofen, n = 6; for % Inhibition in Edema Thickness 2 h: 2 h after induction of inflammation; for % Inhibition in Edema Thickness 3 h: 3 h after induction of inflammation; for Potency (anti-inflammatory activity of tested compound/ibuprofen): after 3 h of induction of inflammation, relative to ibuprofen.
Excerpt: The carrageenan-induced rat paw edema model was utilized to investigate the anti-inflammatory activity of compounds 12–19 relative to ibuprofen as a reference drug.
as §1
The anti-inflammatory activity of the novel compounds 12–19 was evaluated in comparison with ibuprofen as a standard, using a rat paw edema model as described by Winter et al.. Adult albino rats of both sexes (100–140 gm) were used. Rats were uniformly hydrated by giving 3 mL water for each rat through gastric inoculation to reduce variability to edema response. Animals were then divided into groups of six animal each. The control group was given saline solution containing few drops of sodium carboxymethyl cellulose (CMC) 1% and DMSO. Ibuprofen (50 and 100 mg/kg) was given as standard drug. The new compounds 12–19 in a dose molecularly equivalent to ibuprofen were dissolved in 0.5 mL DMSO and CMC 1% was added dropwise with continuous triturating to complete the specified volume. The tested compounds were administered intraperitoneally (IP). The induction of inflammation was achieved by subcutaneous (SC) injection of carrageenan-sodium gel, into the sub-plantar region of the right hind paw. The dorsoventral diameter (thickness) of the right and left hind paw of each rat was measured using digital calipers with accuracy of 0.01 mm (Cole-Parmer, Vernon Hills, IL, USA). The thickness of edema was measured 1, 2 and 3 h after induction of inflammation. The left hind paw diameter served as a control for the degree of inflammation in the right hind paw. The changes in the edema thickness were expressed as mean ± SEM, Figure 4. The anti-inflammatory activity was calculated as % inhibition of inflammation = (1 − Lt/Lc) × 100. Where Lt is the mean increase in paw thickness in rats treated with the tested compounds and Lc is the mean increase in paw thickness in control group. Data were collected, and statistically analyzed by One way ANOVA followed by student-Newman-Keuls multiple comparison test, Table 2.
Background: In the carrageenan paw model, swelling and tenderness develop within hours.

The target of series [3] is T2, COX-2 (human recombinant) (Homo sapiens, UniProt P35354).
T2 sequence (P35354 18-604): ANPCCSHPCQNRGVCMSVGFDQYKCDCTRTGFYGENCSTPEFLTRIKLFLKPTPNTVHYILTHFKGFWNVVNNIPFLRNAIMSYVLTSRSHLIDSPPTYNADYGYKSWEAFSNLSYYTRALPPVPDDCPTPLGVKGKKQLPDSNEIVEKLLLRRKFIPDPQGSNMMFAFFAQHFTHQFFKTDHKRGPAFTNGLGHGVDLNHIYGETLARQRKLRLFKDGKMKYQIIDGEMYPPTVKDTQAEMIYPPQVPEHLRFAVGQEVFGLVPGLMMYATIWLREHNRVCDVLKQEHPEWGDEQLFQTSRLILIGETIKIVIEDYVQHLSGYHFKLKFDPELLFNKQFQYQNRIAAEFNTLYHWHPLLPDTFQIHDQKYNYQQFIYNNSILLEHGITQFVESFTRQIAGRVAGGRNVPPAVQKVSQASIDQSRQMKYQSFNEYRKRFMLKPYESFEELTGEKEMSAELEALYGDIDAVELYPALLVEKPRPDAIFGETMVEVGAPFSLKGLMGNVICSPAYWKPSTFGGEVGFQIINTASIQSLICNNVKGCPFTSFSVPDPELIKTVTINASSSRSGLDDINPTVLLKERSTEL
In words: COX colorimetric inhibitor screening assay, COX-2. Particulars: for SI (COX-2 selectivity index = IC50 of COX-1/IC50 of COX-2): in vitro.

“Also recorded” adds a separate entry of the source.

Method for thermal pain (hot plate): A hot-plate was used to induce thermal pain and the cutoff time was fixed to 15 s [30]. […] The analgesic activity of the novel pyrrolizines were carried out using the thermal model (hot-plate test) according to a previous report [30]. An electronically controlled hot-plate (Harvard Apparatus Ltd., Kent, UK) was used and the cut-off time was 15 s and the temperature was adjusted to 52 ± 0.1 °C. Animals were then divided into groups of six animal each. Rats were assigned numbers of 1–6 in each group. The reference drug was given intraperitoneally at a dose of 50 mg/kg (0.24 mmol/kg) and 100 mg/kg (0.48 mmol/kg). […] The response latencies (time elapsed until licking paw or jumping) were measured and expressed as mean ± SEM. The percent changes (analgesic effects) of the tested compounds were calculated as percent change in latencies divided by baseline time (100 × (T1 − T0)/T0) and results were expressed as % change ± SEM, Figure 6.

Take `CC1(C)Cc2c(-c3ccccc3)c(-c3ccc(Cl)s3)c(CC(=O)O)n2C1` [Compound 3]: the IC50 (as a rule, the concentration that inhibits the measured activity by half) in the series on 5-LOX was 250 nM; with COX-1 it was 210 nM.
With `Cc1ccc(-c2c(-c3ccc(S(C)(=O)=O)cc3)cn3c2CCC3)cc1` [Compound 4], the IC50 is 10000 nM in the series on 5-LOX, 700 nM in the series on COX-1 and 0.005 µM with COX-2.
Take `COC1c2c(-c3ccccc3)c(-c3ccc(Cl)cc3)c(C)n2CC1(C)C` (centres unmarked) [Compound 5]: the IC50 in the series on 5-LOX was 60 nM; with COX-1, 500 nM; with COX-2 it was 7.5 µM.
`CN1CCN(CC(=O)Nc2c(C#N)c3n(c2C(=O)Nc2ccc(Br)cc2)CCC3)CC1` [Compound 14, N-(4-Bromophenyl)-7-cyano-6-(2-(4-methylpiperazin-1-yl)acetamido)-2,3-dihydro-1H-pyrrolizine-5-carbox-amide]: in the series with rat stomach mucosa, the “Ulcerogenicity UI (ulcer index)” value was 4.66 and the “Ulcerogenicity % Protection (% inhibition of ulcer relative to ibuprofen)” value was found to be 66.38%. Further, the “analgesic activity (in words)” value in the series with thermal pain (hot plate) is listed as “lower than that of ibuprofen; also recorded: the least active”. This compound had an IC50 at COX-1 (ovine) of 3.5 µM. The “histopathological findings in stomach transverse sections” value (“histopathological findings” below) in series [1] is on record as “variable degrees of necrosis with some leukocytes infiltration”. Besides, in [2], the “% Inhibition in Edema Thickness 1 h” value worked out at 8.30%, the “% Inhibition in Edema Thickness 2 h” value stood at 9.84%, the “% Inhibition in Edema Thickness 3 h” value amounted to 16.37% and the “Potency (anti-inflammatory activity of tested compound/ibuprofen)” value came out at 0.40. Further, the “anti-inflammatory activity (in words)” value in series [2] (compared with ibuprofen and parent compound 12) is “the least active one”. For the same compound, in series [3], the IC50 stood at 1090 nM and the “SI (COX-2 selectivity index = IC50 of COX-1/IC50 of COX-2)” value worked out at 3.21.
Regarding `N#Cc1c(NC(=O)c2ccccc2)c(C(=O)Nc2ccc(Br)cc2)n2c1CCC2` [Compound 16, 6-Benzamido-N-(4-bromophenyl)-7-cyano-2,3-dihydro-1H-pyrrolizine-5-carboxamide], in the series on rat stomach mucosa, the “Ulcerogenicity UI (ulcer index)” value is on record as 2.26 and the “Ulcerogenicity % Protection (% inhibition of ulcer relative to ibuprofen)” value was 83.69%. For the same compound, in the series with thermal pain (hot plate), the “analgesic potency relative to ibuprofen” value is 1.03 to 1.27 times and the “analgesic activity (in words)” value was “higher analgesic activity than ibuprofen; also recorded: good activity comparable to that of ibuprofen”. On COX-1 (ovine), this compound showed an IC50 of 2.45 µM. Further, the “histopathological findings” value in [1] is listed as “normal mucosal glands with no histopathological effects”. Moreover, in [2], the “% Inhibition in Edema Thickness 1 h” value was 29.95%, the “% Inhibition in Edema Thickness 2 h” value was determined as 37.80%, the “% Inhibition in Edema Thickness 3 h” value amounted to 50.58% and the “Potency (anti-inflammatory activity of tested compound/ibuprofen)” value amounted to 1.24. Further, in [3], the IC50 worked out at 850 nM and the “SI (COX-2 selectivity index = IC50 of COX-1/IC50 of COX-2)” value amounted to 2.89.
For the compound `Cc1ccc(S(=O)(=O)Nc2c(C#N)c3n(c2C(=O)Nc2ccc(Br)cc2)CCC3)cc1` [Compound 17, N-(4-Bromophenyl)-7-cyano-6-(4-methylphenylsulfonamido)-2,3-dihydro-1H-pyrrolizine-5-carboxamide], in the series with rat stomach mucosa, the “Ulcerogenicity UI (ulcer index)” value is 2.26 and the “Ulcerogenicity % Protection (% inhibition of ulcer relative to ibuprofen)” value stood at 83.69%. In the series with thermal pain (hot plate), the “analgesic potency relative to ibuprofen” value is on record as 1.03 to 1.27 times and the “analgesic activity (in words)” value is listed as “higher analgesic activity than ibuprofen; also recorded: the most active”. Also, the IC50 against COX-1 (ovine) came out at 5.01 µM. For the same compound, in [1], the “histopathological findings” value is “little histopathological effects such as congested blood vessels and variable degrees of leukocytes infiltration”. For the same compound, in [2], the “% Inhibition in Edema Thickness 1 h” value came out at 27.19%, the “% Inhibition in Edema Thickness 2 h” value is given as 40.55%, the “% Inhibition in Edema Thickness 3 h” value is on record as 49.47% and the “Potency (anti-inflammatory activity of tested compound/ibuprofen)” value is 1.21. Besides, in series [3], the IC50 is 1720 nM and the “SI (COX-2 selectivity index = IC50 of COX-1/IC50 of COX-2)” value is listed as 2.91.
As to `O=C(c1ccccc1)c1ccc2n1CCC2C(=O)O` (centres unmarked) [Ketorolac, ketorolac], the “selectivity ratio for COX-1” value in the series on COX-1 (COX-1 over COX-2) is reported as 2.9. Moreover, the values for the IC50 in the series on COX-1 and with COX-2 were 1230 nM and 3.6 µM, respectively.
On to `CC1(C)Cc2c(-c3ccccc3)c(-c3ccc(Cl)cc3)c(CC(=O)O)n2C1` [Licofelone, licofelone], for which the IC50 is 180 nM in the series with 5-LOX, 210 nM with COX-1 and over 30 µM in the series with COX-2.

These data come from PMC6273963, “Design, Synthesis, and Biological Evaluation of Some Novel Pyrrolizine Derivatives as COX Inhibitors with Anti-Inflammatory/Analgesic Activities and Low Ulcerogenic Liability” (Molecules, 2016).
